Source: patent publication US5475130A, “Anilide derivative” (Taisho Pharmaceutical Co., Ltd., priority 1990, dated 1995)
pIC50: −log10 of the molar value.

target: T1, ACAT (acyl-coenzyme A cholesterol acyltransferase) (Oryctolagus cuniculus, UniProt G1SFD9); assay: ACAT inhibition activity (rabbit small intestinal microsome fraction, [1-^14 C]oleyl coenzyme A); format: biochemical; conditions: not given
T1 construct: A rabbit small intestinal microsome fraction was prepared in the usual way; from tissue; host or cells: rabbit small intestine, microsome fraction
T1 sequence (G1SFD9 1-524): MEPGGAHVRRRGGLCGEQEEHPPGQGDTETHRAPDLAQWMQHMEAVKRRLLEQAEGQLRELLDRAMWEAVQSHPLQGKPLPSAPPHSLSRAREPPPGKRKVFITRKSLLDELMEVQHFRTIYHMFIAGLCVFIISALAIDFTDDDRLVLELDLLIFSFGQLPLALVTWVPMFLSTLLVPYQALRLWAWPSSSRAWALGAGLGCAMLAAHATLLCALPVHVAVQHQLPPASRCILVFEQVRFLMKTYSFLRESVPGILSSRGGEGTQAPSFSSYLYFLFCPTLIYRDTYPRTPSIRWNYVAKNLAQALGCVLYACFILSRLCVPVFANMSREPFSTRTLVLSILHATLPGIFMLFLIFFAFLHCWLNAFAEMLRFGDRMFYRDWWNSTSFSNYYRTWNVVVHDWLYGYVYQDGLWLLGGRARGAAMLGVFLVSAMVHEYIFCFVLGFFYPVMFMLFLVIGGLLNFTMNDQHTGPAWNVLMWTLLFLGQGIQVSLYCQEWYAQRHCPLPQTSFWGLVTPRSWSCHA
Description: (ACAT inhibition activity)
A rabbit small intestinal microsome fraction was prepared in the usual way, and the thus prepared microsome fraction was suspended in 0.04N potassiumphosphate buffer (pH 7.4) containing 0.1N sucrose, 0.03N ethylenediaminetetraacetic acid (EDTA) and 0.05N potassium chloride. Each of the drugs to be tested was dissolved in dimethyl sulfoxide.
The rabbit small intestinal microsome fraction suspension prepared above (250 μg as protein) and [1-^14 C]oleyl coenzyme A were added to 0.05N phosphate buffer (pH 7.4) containing 1% bovine serum albumin, followed by the addition of a drug to be tested with varied concentration,and the total volume was adjusted to 500 μl. The thus prepared mixture was incubated at 37° C. for 6 minutes, and the reaction was terminated by adding a mixture of chloroform and methanol (mixing ratio=2:1). After stirring, the resulting chloroform layer was collected and dried by concentration. […] A gel portion corresponding to cholesterol oleate was cut out and its radioactivity was measured using a liquid scintillation counter (LSC-3000, manufactured by Aroka Co., Ltd.). Samples obtained without using the drugs to be tested were also treated and measured in the same manner.
ACAT activity inhibition ratio (%)=(A-B)/B×100
A: ACAT activity when a drug to be tested is administered.
B: ACAT activity when a drug to be tested is not admistered.

With `CCCCCCCCCCCCCCSCC(=O)Nc1c(C(C)C)cccc1C(C)C` [Compound 1, N-(2,6-diisopropylphenyl)-2-(tetradecylthio)acetamide] the pIC50 was 8.00 to 9.00.

same assay, conditions: rabbit small intestinal microsome fraction (250 μg as protein), 37° C., 6 minutes, pH 7.4, 1% bovine serum albumin; read-out: Activity (strength of the activity, IC50 value)

Compared with `CCCCCCCCCCCCCCSC(C)(C)C(=O)Nc1c(C(C)C)cccc1C(C)C` [Compound 9, N-(2,6-diisopropylphenyl)-2-methyl-2-(tetradecylthio)propanamide], `CCCCCCCCCCCCCCSCCC(=O)Nc1c(C(C)C)cccc1C(C)C` [Compound 12, N-(2,6-diisopropylphenyl)-3-(tetradecylthio)propanamide] is higher in pIC50: 7.00 to 8.00 for the first, 8.00 to 9.00 for the second.

First: CCCCCCCCCCCCCCSCCCC(=O)Nc1c(C(C)C)cccc1C(C)C [Compound 10, N-(2,6-diisopropylphenyl)-4-(tetradecylthio)butanamide]
Second: CCCCCCCCCCCCCCCCSCC(=O)Nc1c(C(C)C)cccc1C(C)C [Compound 5, N-(2,6-diisopropylphenyl)-2-(hexadecylthio)acetamide]
The pIC50 of the first is higher: 8.00 to 9.00 for the first, 7.00 to 8.00 for the second.

`CCCCCCCCCCCCCCCCS(=O)(=O)CC(=O)Nc1c(C(C)C)cccc1C(C)C` [Compound 18, N-(2,6-diisopropylphenyl)-2-(hexadecylsulfonyl)acetamide] and `CCCCCCCCCCCCCCS(=O)(=O)CC(=O)Nc1c(C(C)C)cccc1C(C)C` [Compound 14, N-(2,6-diisopropylphenyl)-2-(tetradecylsulfonyl)acetamide] fall in the same range of pIC50: 7.00 to 8.00 for the first, 7.00 to 8.00 for the second.

Compared with `CCCCCCCCCCCCSCC(=O)Nc1c(C(C)C)cccc1C(C)C` [Compound 4, N-(2,6-diisopropylphenyl)-2-(dodecylthio)acetamide], `CCCCCCCCCCCCCCCCCCSCC(=O)Nc1c(C(C)C)cccc1C(C)C` [Compound 6, N-(2,6-diisopropylphenyl)-2-(octadecylthio)acetamide] is higher in pIC50: 7.00 to 8.00 for the first, 8.00 to 9.00 for the second.

`CC(C)c1cccc(C(C)C)c1NC(=O)CSCc1ccc(C(C)(C)C)cc1` [Compound 8, N-(2,6-diisopropylphenyl)-2-(4-t-butylbenzylthio)acetamide] and `CCCCCCCCCCCCCC[S+]([O-])CC(=O)Nc1c(C(C)C)cccc1C(C)C` (stereo not shown) [Compound 13] fall in the same range of pIC50: 7.00 to 8.00 for the first, 7.00 to 8.00 for the second.

Compared with `CCCCCCCCCCCCCCSCC(=O)Nc1c(C)cccc1C(C)(C)C` [Compound 24, N-(2-methyl-6-t-butylphenyl)-2-(tetradecylthio)acetamide], `CCCCCCCCCCCCS(=O)(=O)CC(=O)Nc1c(C(C)C)cccc1C(C)C` [Compound 17, N-(2,6-diisopropylphenyl)-2-(dodecylsulfonyl)acetamide] is lower in pIC50: 8.00 to 9.00 for the first, 7.00 to 8.00 for the second.
